Measured values published in US7498349B2, “Biaryl compounds having anti-infective activity” (Genesoft Pharmaceuticals, Inc., priority 2002, dated 2009).
≈ marks a conversion by molar mass, not a printed value.

Tests used:
[1] = test system: B. cereus ATCC 11778; experiment: MIC, NCCLS broth microdilution assay; type: cell-based, Bacillus cereus; conditions: for Minimum Inhibitory Concentration (MIC): B. cereus ATCC 11778
[2] = test system: S. aureus ATCC 27660; experiment: MIC, NCCLS broth microdilution assay; type: cell-based, Staphylococcus aureus; conditions: for Minimum Inhibitory Concentration (MIC): S. aureus ATCC 27660, methicillin resistant strain (MRSA)
Excerpt: (§1) In vitro biological activity data were collected for a variety of microorganisms, including Bacillus cereus (ATCC 11778), Staphylococcus aureus (ATCC 33591; ATCC 27660, a methicillin resistant strain (MRSA); ATCC 13709, a methicillin sensitive strain (MSSA)), Escherichia coli (ATCC 25922), Enterococcus faecalis (ATCC 29212), Streptococcus pneumoniae (ATCC 49619; ATCC 51422, a penicillin resistant strain (PRSP)), Enterococcus faecium (ATCC 51559, a vancomycin resistant strain (VRE)), and Staphylococcus epidermidis (ATCC 12228).
(§2) The minimal inhibition concentration (MIC) of these compounds was determined using the National Committee for Clinical Laboratory Standards (NCCLS) broth microdilution assay in microtiter plates, as set forth in: (1) the guidelines of the National Committee for Clinical Laboratory Standards (NCCLS) Document M7-A4 (NCCLS, 1997); (2) the guidelines of the National Committee for Clinical Laboratory Standards (NCCLS) Document M11-A4 (NCCLS, 1997); and (3) the guidelines and reference method of the National Committee for Clinical Laboratory Standards (NCCLS) Document M27 -T (NCCLS, 1995).

[3] = test system: C. albicans ATCC 38247; experiment: MIC, antifungal assay; type: cell-based, Candida albicans; conditions: for Minimum Inhibitory Concentration (MIC): C. albicans ATCC 38247
Excerpt: In vitro biological activity data were collected for a variety of microorganisms, including Bacillus cereus (ATCC 11778), Staphylococcus aureus (ATCC 33591; ATCC 27660, a methicillin resistant strain (MRSA); ATCC 13709, a methicillin sensitive strain (MSSA)), Escherichia coli (ATCC 25922), Enterococcus faecalis (ATCC 29212), Streptococcus pneumoniae (ATCC 49619; ATCC 51422, a penicillin resistant strain (PRSP)), Enterococcus faecium (ATCC 51559, a vancomycin resistant strain (VRE)), and Staphylococcus epidermidis (ATCC 12228). Additionally, antifungal activity data were collected for Candida albicans (ATCC 38247).
The minimal inhibition concentration (MIC) of these compounds was determined using the National Committee for Clinical Laboratory Standards (NCCLS) broth microdilution assay in microtiter plates, as set forth in: (1) the guidelines of the National Committee for Clinical Laboratory Standards (NCCLS) Document M7-A4 (NCCLS, 1997); (2) the guidelines of the National Committee for Clinical Laboratory Standards (NCCLS) Document M11-A4 (NCCLS, 1997); and (3) the guidelines and reference method of the National Committee for Clinical Laboratory Standards (NCCLS) Document M27 -T (NCCLS, 1995). For antifungal assays, the method recommended in Murray, PR., 1995 Manual of Clinical Microbiology (ASM Press, Washington, D.C.), was employed.

[4] = test system: E. faecalis ATCC 29212; experiment: MIC, NCCLS broth microdilution assay; type: cell-based, Enterococcus faecalis; conditions: for Minimum Inhibitory Concentration (MIC): E. faecalis ATCC 29212
[5] = test system: S. pneumoniae ATCC 49619; experiment: MIC, NCCLS broth microdilution assay; type: cell-based, Streptococcus pneumoniae; conditions: for Minimum Inhibitory Concentration (MIC): S. pneumoniae ATCC 49619
[6] = test system: S. aureus ATCC 13709; experiment: MIC, NCCLS broth microdilution assay; type: cell-based, Staphylococcus aureus; conditions: for Minimum Inhibitory Concentration (MIC): S. aureus ATCC 13709, methicillin sensitive strain (MSSA)
[7] = test system: S. aureus ATCC 33591; experiment: MIC, NCCLS broth microdilution assay; type: cell-based, Staphylococcus aureus; conditions: for Minimum Inhibitory Concentration (MIC): S. aureus ATCC 33591
Excerpt: as §1, §2

[8] = test system: E. coli ATCC 25922; experiment: MIC, NCCLS broth microdilution assay; type: cell-based, Escherichia coli; conditions: for Minimum Inhibitory Concentration (MIC): E. coli ATCC 25922

SMILES	Minimum Inhibitory Concentration (MIC) [1]	Minimum Inhibitory Concentration (MIC) [2]	Minimum Inhibitory Concentration (MIC) [3]	Minimum Inhibitory Concentration (MIC) [4]	Minimum Inhibitory Concentration (MIC) [5]	Minimum Inhibitory Concentration (MIC) [6]	Minimum Inhibitory Concentration (MIC) [7]	Minimum Inhibitory Concentration (MIC) [8]	MIC ([1]; Bacillus cereus, ATCC11778, read-out: Minimum Inhibitory Concentration (MIC))	MIC ([2]; Staphylococcus aureus, ATCC 27660 / MRSA, read-out: Minimum Inhibitory Concentration (MIC))	MIC ([3]; Candida albicans, ATCC38247, read-out: Minimum Inhibitory Concentration (MIC))	MIC ([4]; Enterococcus faecalis, ATCC29212, read-out: Minimum Inhibitory Concentration (MIC))	MIC ([5]; Streptococcus pneumoniae, ATCC49619, read-out: Minimum Inhibitory Concentration (MIC))	MIC ([6]; Staphylococcus aureus, ATCC 13709 / MSSA, read-out: Minimum Inhibitory Concentration (MIC))	MIC ([7]; Staphylococcus aureus, ATCC33591, read-out: Minimum Inhibitory Concentration (MIC))	MIC ([8]; Escherichia coli, ATCC25922, read-out: Minimum Inhibitory Concentration (MIC))
Cc1ccc2oc(-c3ccc(NC(=O)c4nsc(NCCCN(C)C)c4Cl)cc3)cc2n1 [Compound A-55]	+ (12 ≦ MIC ≦ 32)	++ (4 < MIC < 12)	++ (4 < MIC < 12)	+ (12 ≦ MIC ≦ 32)	+ (12 ≦ MIC ≦ 32)	++ (4 < MIC < 12)	+ (12 ≦ MIC ≦ 32)	>32 µg/mL								
O=C(Nc1ccc(-c2cc3ccccc3[nH]2)cc1)c1nsc(NCCN2CCCC2)c1Cl [Compound A-58]	+ (12 ≦ MIC ≦ 32)	++ (4 < MIC < 12)	+++ (MIC ≦ 4)	++ (4 < MIC < 12)	+ (12 ≦ MIC ≦ 32)	+ (12 ≦ MIC ≦ 32)	++ (4 < MIC < 12)	>32 µg/mL								
O=C(Nc1ccc(-c2cc3ccccc3s2)cc1)c1nsc(NCCN2CCCC2)c1Cl [Compound A-46]	>32 µg/mL	+ (12 ≦ MIC ≦ 32)	>32 µg/mL	>32 µg/mL	>32 µg/mL	+ (12 ≦ MIC ≦ 32)	>32 µg/mL	>32 µg/mL								
CN1CCN(CCNc2snc(C(=O)Nc3ccc(-c4cc5ccccc5[nH]4)cc3)c2Cl)CC1 [Compound A-61]	>32 µg/mL	>32 µg/mL	+++ (MIC ≦ 4)	>32 µg/mL	>32 µg/mL	>32 µg/mL	>32 µg/mL	>32 µg/mL								
O=C(Nc1ccc(-c2cc3ccccc3s2)nc1)c1cccnc1NCCN1CCCCC1 [Compound A-72]	>32 µg/mL	>32 µg/mL	>32 µg/mL	>32 µg/mL	>32 µg/mL	>32 µg/mL	>32 µg/mL	>32 µg/mL								
NCCCCNc1snc(C(=O)Nc2ccc(-c3cc4ccccc4o3)nc2)c1Cl [Compound A-37]	>32 µg/mL	+++ (MIC ≦ 4)	+ (12 ≦ MIC ≦ 32)	++ (4 < MIC < 12)	>32 µg/mL	+++ (MIC ≦ 4)	++ (4 < MIC < 12)	>32 µg/mL								
O=C(Nc1ccc(-c2cc3ccccc3s2)cc1)c1cccnc1NCCN1CCNCC1 [Compound A-48]	+ (12 ≦ MIC ≦ 32)	+++ (MIC ≦ 4)	>32 µg/mL	>32 µg/mL	>32 µg/mL	+++ (MIC ≦ 4)	+++ (MIC ≦ 4)	>32 µg/mL								
CN(CCCN)CCCNc1cc(Cl)ccc1C(=O)Nc1ccc(-c2cc3ccccc3o2)nc1 [Compound A-41]	++ (4 < MIC < 12)	+++ (MIC ≦ 4)	++ (4 < MIC < 12)	+++ (MIC ≦ 4)	+ (12 ≦ MIC ≦ 32)	+++ (MIC ≦ 4)	+++ (MIC ≦ 4)	++ (4 < MIC < 12)								
O=C(Nc1ccc(-c2cc3ccccc3o2)nc1)c1ccc(Cl)cc1NCCN1CCCC1 [Compound A-43]	++ (4 < MIC < 12)	++ (4 < MIC < 12)	>32 µg/mL	++ (4 < MIC < 12)	+ (12 ≦ MIC ≦ 32)	++ (4 < MIC < 12)	++ (4 < MIC < 12)	>32 µg/mL								
NCCCCNc1ncccc1C(=O)Nc1ccc(-c2cc3ccccc3s2)nc1 [Compound A-75]	+++ (MIC ≦ 4)	+++ (MIC ≦ 4)	>32 µg/mL	+++ (MIC ≦ 4)	+ (12 ≦ MIC ≦ 32)	+++ (MIC ≦ 4)	+++ (MIC ≦ 4)	>32 µg/mL								
CCN(CC)CCCNc1cc(Cl)ccc1C(=O)Nc1ccc(-c2cc3ccccc3o2)cc1 [Compound A-23]	+++ (MIC ≦ 4)	+++ (MIC ≦ 4)	+ (12 ≦ MIC ≦ 32)	+++ (MIC ≦ 4)	+ (12 ≦ MIC ≦ 32)	+++ (MIC ≦ 4)	+++ (MIC ≦ 4)	>32 µg/mL								
O=C(Nc1ccc(-c2cc3ccccc3[nH]2)cc1)c1nsc(NCCN2CCOCC2)c1Cl [Compound A-60]	>32 µg/mL	>32 µg/mL	>32 µg/mL	>32 µg/mL	>32 µg/mL	>32 µg/mL	>32 µg/mL	>32 µg/mL								
O=C(Nc1ccc(-c2cc3ccccc3[nH]2)cc1)c1cccnc1NCCN1CCOCC1 [Compound A-66]	>32 µg/mL	>32 µg/mL	>32 µg/mL	>32 µg/mL	>32 µg/mL	>32 µg/mL	>32 µg/mL	>32 µg/mL								
NCCNc1snc(C(=O)Nc2ccc(-c3cc4ccccc4[nH]3)cc2)c1Cl [Compound A-56]	>32 µg/mL	++ (4 < MIC < 12)	+ (12 ≦ MIC ≦ 32)	+ (12 ≦ MIC ≦ 32)	>32 µg/mL	++ (4 < MIC < 12)	++ (4 < MIC < 12)	>32 µg/mL								
O=C(Nc1ccc(-c2cc3ccccc3o2)nc1)c1nsc(NCCN2CCNCC2)c1Cl [Compound A-35]	>32 µg/mL	+ (12 ≦ MIC ≦ 32)	+++ (MIC ≦ 4)	+ (12 ≦ MIC ≦ 32)	>32 µg/mL	+ (12 ≦ MIC ≦ 32)	>32 µg/mL	>32 µg/mL								
CN(CCCN)CCCNc1ncccc1C(=O)Nc1ccc(-c2cc3ccccc3s2)nc1 [Compound A-76]	+ (12 ≦ MIC ≦ 32)	+++ (MIC ≦ 4)	+ (12 ≦ MIC ≦ 32)	++ (4 < MIC < 12)	+ (12 ≦ MIC ≦ 32)	+++ (MIC ≦ 4)	++ (4 < MIC < 12)	+ (12 ≦ MIC ≦ 32)								
O=C(Nc1ccc(-c2cc3ccccc3o2)cc1)c1ccc(Cl)cc1NCCN1CCCC1 [Compound A-25]	>32 µg/mL	+ (12 ≦ MIC ≦ 32)	>32 µg/mL	+ (12 ≦ MIC ≦ 32)	>32 µg/mL	+ (12 ≦ MIC ≦ 32)	+ (12 ≦ MIC ≦ 32)	>32 µg/mL								
NCCNc1cc(Cl)ccc1C(=O)Nc1ccc(-c2cc3ccccc3o2)nc1 [Compound A-45]									4 to 12 µg/mL (≈ 9.83 to 29.5 µM)	< 4 µg/mL	4 to 12 µg/mL (≈ 9.83 to 29.5 µM)	4 to 12 µg/mL (≈ 9.83 to 29.5 µM)	12 to 32 µg/mL (≈ 29.5 to 78.6 µM)	< 4 µg/mL	< 4 µg/mL	> 32 µg/mL
